Measured values: patent publication US8765730B2 (Hoffmann-La Roche Inc, priority 2010, dated 2014)

Target: T1, human GPBAR1 receptor (Homo sapiens, UniProt Q8TDU6)
T1 construct: expressed in transfected cells
T1 sequence (Q8TDU6 1-330): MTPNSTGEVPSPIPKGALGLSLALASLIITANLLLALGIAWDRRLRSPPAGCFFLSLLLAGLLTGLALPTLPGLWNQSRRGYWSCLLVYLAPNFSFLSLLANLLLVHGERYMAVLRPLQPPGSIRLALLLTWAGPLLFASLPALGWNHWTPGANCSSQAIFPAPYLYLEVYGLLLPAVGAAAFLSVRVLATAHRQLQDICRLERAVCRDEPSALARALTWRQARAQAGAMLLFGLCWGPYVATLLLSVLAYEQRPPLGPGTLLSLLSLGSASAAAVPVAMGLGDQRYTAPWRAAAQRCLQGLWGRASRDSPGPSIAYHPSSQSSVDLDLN
Experiment: functional cAMP assay in CHO-dhfr(minus) cells expressing human GPBAR1 receptors
Assay type: cell-based
Conditions: human EC50, functional cAMP assay, 30 min at 30° C.
Summary of the method: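 Agonist cAMP read-out: stable GPBAR1 CHO-dhfr− clone, 30 min compound exposure at 30° C following 30 min IBMX (1 mM) preincubation in Krebs Ringer bicarbonate. Time-resolved energy-transfer detection gives EC50; parental CHO cells serve as counter-screen.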

Cc1ccccc1C(CC(=NO)c1ccncc1)c1ccc(-c2cncnc2)cc1 (racemic) [Example 34, 1-Pyridin-4-yl-3-(4-pyrimidin-5-yl-phenyl)-3-o-tolyl-propan-1-one oxime]
EC50: 0.014 µM

Cc1ccc(-c2ccc(C(C/C(=N\O)c3ccncc3)c3ccccc3)cc2)cn1 (centres unmarked) [Example 25, (E)-3-[4-(6-Methyl-pyridin-3-yl)-phenyl]-3-phenyl-1-pyridin-4-yl-propan-1-one oxime]
EC50: 0.356 µM

Cc1ccccc1C(C/C(=N\O)c1ccc(=O)n(C)c1)c1ccc(C(=O)N2CCOCC2)cc1 (centres unmarked) [Example 207, 5-{1-[(E)-Hydroxyimino]-3-[4-(morpholine-4-carbonyl)-phenyl]-3-o-tolyl-propyl}-1-methyl-1H-pyridin-2-one]
EC50: 0.711 µM

Cc1ccccc1C(C/C(=N\O)c1ccn(C)c(=O)c1)c1ccc(Br)cc1 (centres unmarked) [Example 110, 4-{3-(4-Bromo-phenyl)-1-[(E)-hydroxyimino]-3-o-tolyl-propyl}-1-methyl-1H-pyridin-2-one]
EC50: 0.116 µM

CC(=O)N1CCN(c2ccc(C(CC(=NO)c3ccnc(C)c3)c3ccc(F)cc3F)cn2)CC1 (centres unmarked) [Example 444, 3-[6-(4-Acetyl-piperazin-1-yl)-pyridin-3-yl]-3-(2,4-difluoro-phenyl)-1-(2-methyl-pyridin-4-yl)-propan-1-one oxime]
EC50: 0.103 µM

O=c1ccc(/C(CC(c2ccccc2)c2ccccc2)=N/O)c[nH]1 [Example 160, 5-{1-[(E)-Hydroxyimino]-3,3-diphenyl-propyl}-1H-pyridin-2-one]
EC50: 1.31 µM

COCCN(C)c1ccc([C@@H](C/C(=N\O)c2ccnc(C)c2)c2ccccc2C)cc1 [Example 267, (E,R)-3-{4-[(2-Methoxy-ethyl)-methyl-amino]-phenyl}-1-(2-methyl-pyridin-4-yl)-3-o-tolyl-propan-1-one oxime]
EC50: 0.018 µM

Cc1cc(/C(CC(c2ccc(Br)cc2)c2ccc(Cl)cc2F)=N/O)ccn1 (centres unmarked) [Example 147, (E)-3-(4-Bromo-phenyl)-3-(4-chloro-2-fluoro-phenyl)-1-(2-methyl-pyridin-4-yl)-propan-1-one oxime]
EC50: 0.467 µM

Cn1cc(/C(CC(c2ccccc2Cl)C2CC[N+](C)(C)CC2)=N/O)ccc1=O (centres unmarked) [Example 198, 4-[1-(2-Chloro-phenyl)-3-[(E)-hydroxyimino]-3-(1-methyl-6-oxo-1,6-dihydro-pyridin-3-yl)-propyl]-1,1-dimethyl-piperidinium iodide]
EC50: 9.64 µM

Cn1cc(/C(CC(c2ccc(Br)cc2)c2ccc(Cl)cc2F)=N/O)ccc1=O (single isomer, unassigned; (-)) [Example 240, (−)-5-{3-(4-Bromo-phenyl)-3-(4-chloro-2-fluoro-phenyl)-1-[(E)-hydroxyimino]-propyl}-1-methyl-1H-pyridin-2-one]
EC50: 0.031 µM

Cn1cc(/C(CC(c2ccc(Br)cc2F)C2CCCC2)=N/O)ccc1=O (centres unmarked) [Example 192, 5-{3-(4-Bromo-2-fluoro-phenyl)-3-cyclopentyl-1-[(E)-hydroxyimino]-propyl}-1-methyl-1H-pyridin-2-one]
EC50: 0.107 µM

Cc1cc(/C(CC(c2ccc(C(=O)NC3CCCCC3)cc2)c2ccc(F)cc2F)=N/O)ccn1 (centres unmarked) [Example 436, N-Cyclohexyl-4-[1-(2,4-difluoro-phenyl)-3-[(E)-hydroxyimino]-3-(2-methyl-pyridin-4-yl)-propyl]-benzamide]
EC50: 0.062 µM

Cc1ccccc1[C@H](C/C(=N\O)c1ccc(=O)n(C)c1)c1ccc(CC(=O)O)cc1 [Example 493, (R,E)-2-(4-(3-(Hydroxyimino)-3-(1-methyl-6-oxo-1,6-dihydropyridin-3-yl)-1-o-tolylpropyl)phenyl)acetic acid]
EC50: 0.666 µM

Cc1cc(/C(C[C@H](c2ccc(N3CCC(C(N)=O)CC3)cc2)c2ccccc2C)=N/O)ccn1 [Example 367, (R,E)-1-(4-(3-(Hydroxyimino)-3-(2-methylpyridin-4-yl)-1-o-tolylpropyl)phenyl)piperidine-4-carboxamide]
EC50: 0.001 µM

CNC(=O)c1ccc([C@@H](C/C(=N\O)c2ccnc(C)c2)c2ccccc2C)cc1 [Example 278, 4-[(R)-3-[(E)-Hydroxyimino]-3-(2-methyl-pyridin-4-yl)-1-o-tolyl-propyl]-N-methyl-benzamide]
EC50: 0.015 µM

Cc1cc(/C(C[C@H](c2ccc(-c3ccc(C(=O)O)c(F)c3)cc2)c2ccc(Cl)cc2F)=N/O)ccn1 (single isomer, unassigned) [Example 448, 4′-[(−)-1-(4-Chloro-2-fluoro-phenyl)-3-[(E)-hydroxyimino]-3-(2-methyl-pyridin-4-yl)-propyl]-3-fluoro-biphenyl-4-carboxylic acid]
EC50: 0.018 µM

Cc1cc(Cl)ccc1C(C/C(=N\O)c1ccc(=O)n(C)c1)c1ccc(O)c(F)c1 (centres unmarked) [Example 324, 5-{3-(4-Chloro-2-methyl-phenyl)-3-(3-fluoro-4-hydroxy-phenyl)-1-[(E)-hydroxyimino]-propyl}-1-methyl-1H-pyridin-2-one]
EC50: 0.566 µM

Cc1cc(C(CC(c2cccc(-c3ccc(S(C)(=O)=O)cc3)c2)c2ccccc2C)=NO)ccn1 (racemic) [Example 104, 3-(4′-Methanesulfonyl-biphenyl-3-yl)-1-(2-methyl-pyridin-4-yl)-3-o-tolyl-propan-1-one oxime]
EC50: 0.578 µM

Cc1cc(F)ccc1C(C/C(=N\O)c1ccc(=O)n(C)c1)c1ccc(-c2ccc(S(N)(=O)=O)cc2)cc1 (centres unmarked) [Example 401, 4′-[1-(4-Fluoro-2-methyl-phenyl)-3-[(E)-hydroxyimino]-3-(1-methyl-6-oxo-1,6-dihydro-pyridin-3-yl)-propyl]-biphenyl-4-sulfonic acid amide]
EC50: 0.005 µM

Cn1cc(/C(CC(c2ccc(Br)cc2)c2ccccc2F)=N/O)ccc1=O (centres unmarked) [Example 243, (E)-5-(3-(4-Bromophenyl)-3-(2-fluorophenyl)-1-(hydroxyimino)propyl)-1-methylpyridin-2(1H)-one]
EC50: 0.02 µM

Cn1cc(/C(CC(c2ccc(-c3ccc(C(=O)O)cc3)cc2)c2ccc(Cl)cc2F)=N/O)ccc1=O (single isomer, unassigned; (-)) [Example 242, (−)-4′-[1-(4-Chloro-2-fluoro-phenyl)-3-[(E)-hydroxyimino]-3-(1-methyl-6-oxo-1,6-dihydro-pyridin-3-yl)-propyl]-biphenyl-4-carboxylic acid]
EC50: 0.37 µM

Cc1ccccc1[C@@H](C/C(=N\O)c1ccc(=O)n(C)c1)c1ccc([C@H]2CC[C@H](C(=O)O)CC2)cc1 [Example 488, Trans-4-(4-((S,E)-3-(Hydroxyimino)-3-(1-methyl-6-oxo-1,6-dihydropyridin-3-yl)-1-o-tolylpropyl)phenyl)cyclohexanecarboxylic acid]
EC50: 0.612 µM

Cc1cc(/C(C[C@H](c2ccc(O)cc2)c2ccccc2C)=N/O)ccn1 [Example 363, (R)-3-(4-Hydroxy-phenyl)-1-(2-methyl-pyridin-4-yl)-3-o-tolyl-propan-1-one oxime]
EC50: 0.028 µM

CCS(=O)(=O)c1ccc(C(C/C(=N\O)c2ccc(=O)n(C)c2)c2ccc(Cl)cc2F)cc1 (centres unmarked) [Example 316, (E)-5-(3-(4-Chloro-2-fluorophenyl)-3-(4-(ethylsulfonyl)phenyl)-1-(hydroxyimino)propyl)-1-methylpyridin-2(1H)-one]
EC50: 0.319 µM

C=CCC(C/C(=N\O)c1ccc(=O)n(C)c1)c1ccc(Br)cc1 (centres unmarked) [Example 176, 5-{3-(4-Bromo-phenyl)-1-[(E)-hydroxyimino]-hex-5-enyl}-1-methyl-1H-pyridin-2-one]
EC50: 0.369 µM

Cc1cc(/C(C[C@H](c2ccc(C3CCN(S(C)(=O)=O)CC3)cc2)c2ccc(Cl)cc2C)=N/O)ccn1 [Example 389, (R,E)-3-(4-Chloro-2-methylphenyl)-1-(2-methylpyridin-4-yl)-3-(4-(1-(methylsulfonyl)-piperidin-4-yl)phenyl)propan-1-one oxime]
EC50: 0.033 µM

Cn1cc(/C(CC(c2ccc(C(=O)NCCO)cc2)c2ccc(Cl)cc2F)=N/O)ccc1=O (centres unmarked) [Example 311, 4-[1-(4-Chloro-2-fluoro-phenyl)-3-[(E)-hydroxyimino]-3-(1-methyl-6-oxo-1,6-dihydro-pyridin-3-yl)-propyl]-N-(2-hydroxy-ethyl)-benzamide]
EC50: 0.253 µM

Cc1cc(/C(CC(c2ccc(-c3ccc(C(=O)O)cc3)cc2)c2ccccc2C(F)(F)F)=N/O)ccn1 (centres unmarked) [Example 134, 4′-[3-[(E)-Hydroxyimino]-3-(2-methyl-pyridin-4-yl)-1-(2-trifluoromethyl-phenyl)-propyl]-biphenyl-4-carboxylic acid]
EC50: 0.02 µM

Cc1ccccc1C(CC(=NO)c1ccnc(Cl)c1)c1ccc(Br)cc1 (racemic) [Example 119, 3-(4-Bromo-phenyl)-1-(2-chloro-pyridin-4-yl)-3-o-tolyl-propan-1-one oxime]
EC50: 0.227 µM

Cc1cc(/C(CC(c2cccc(CC(=O)O)c2)c2ccccc2C)=N/O)ccn1 (centres unmarked) [Example 105, {3-[3-[(E)-Hydroxyimino]-3-(2-methyl-pyridin-4-yl)-1-o-tolyl-propyl]-phenyl}-acetic acid]
EC50: 1.02 µM

Cc1cc(F)ccc1C(C/C(=N\O)c1ccc(=O)n(C)c1)c1ccc(-c2ccc(-c3nnn[nH]3)cc2)cc1 (centres unmarked) [Example 260, 5-{3-(4-Fluoro-2-methyl-phenyl)-1-[(E)-hydroxyimino]-3-[4′-(1H-tetrazol-5-yl)-biphenyl-4-yl]-propyl}-1-methyl-1H-pyridin-2-one]
EC50: 0.04 µM

Cc1ccccc1C(CC(=NO)c1ccncc1)c1ccc(-c2ccc(S(C)(=O)=O)cc2)cc1 (racemic) [Example 33, 3-(4′-Methanesulfonyl-biphenyl-4-yl)-1-pyridin-4-yl-3-o-tolyl-propan-1-one oxime]
EC50: 0.047 µM
